The values below are quoted from earlier work in patent US20260272825A1, “LEVONORGESTREL AND COMPOSITIONS COMPRISING THE SAME” (CHEMO RESEARCH, S.L., priority 2023, published 2026).

A value given as a limit tells only on which side of the number the result lay.

This series concerns women.

Turning to `C[C@]12CCC3=C4CCC(=O)C=C4CC[C@H]3[C@@H]1CC[C@@]2(O)CC#N` [DNG, Dienogest], the “Ovulation inhibition / ovarian activity, in words” value (2 mg daily) is on record as “provides ovulation inhibition, but ovarian activity is not completely suppressed”.

As for `C#C[C@]1(OC(C)=O)CC[C@H]2[C@@H]3CCC4=CC(=O)CC[C@@H]4[C@H]3CC[C@@]21C` [NETA, norethisterone acetate], the “Dosage providing ovulation inhibition” value (given continuously over 28 days) is given as at least 0.35 mg/daily.

With `C#C[C@]1(O)CC[C@H]2[C@@H]3CCC4=CCCC[C@@H]4[C@H]3C(=C)C[C@@]21CC` [desogestrel], the “Cycles with ovulation inhibited” value (POP containing desogestrel 0.075 mg) is reported as “at least 98%”.
